From patent publication US10975087B2, “Solid forms of tetrahydropyranyl amino-pyrrolopyrimidinone compounds” (ArQule, Inc., priority 2018, dated 2021)
Values joined by “and” are separate entries in the source; they are usually repeats but may differ in a detail not shown here. Equal values may be shown once. “Also recorded” adds a separate entry of the source.

What was measured:
Type in all cases: physicochemical
[1] = Accelerated storage conditions (75% RH/40° C. for 72 hours), XRPD
[2] = Form conversion under ambient or vacuum drying conditions
[3] = Dynamic vapor sorption (DVS); settings: for Post-DVS XRPD analysis (form): after exposure to elevated humidity; for moisture uptake by DVS: at 90% RH
Procedure: Approximately 10-20 mg of sample was placed into a mesh vapor sorption balance pan and loaded into a DVS-1 dynamic vapor sorption balance by Surface Measurement Systems. […] After completion of the sorption cycle, the sample was dried using the same procedure to 0% RH and then a second sorption cycle back to 40% RH. Two cycles were performed. The weight change during the sorption/desorption cycles were plotted, allowing for the hygroscopic nature of the sample to be determined. XRPD analysis may be then carried out on any solid retained.

[4] = 7 day stability testing, open vials at 40° C./75% RH, ambient and 80° C.; settings: for XRPD analysis after storage for 1 week: 80° C., and ambient temperature
[5] = Karl Fischer coulometric titration (KF) water content
Procedure: Approximately 10-30 mg of solid material was accurately weighed into a vial. The solid was then manually introduced into the titration cell of a Mettler Toledo C30 Compact Titrator. The vial was back-weighed after the addition of the solid and the weight of the added solid entered on the instrument. Titration was initiated once the sample had fully dissolved in the cell. The water content was calculated automatically by the instrument as a percentage and the data printed.

[6] = Hydration studies in water/acetone mixtures; settings: for Hydration study result (solid by XRPD): 5 days; for solid obtained in hydration study: the other experiments (remaining water contents/temperatures)
Procedure: Hydration experiments were performed at 25° C. and 50° C. in water/acetone mixtures with the following water content (volume %): 2%, 5%, and 20%. The samples were prepared by adding 250 μL of the water/acetone mixture to 15 mg of the salt sample. The samples were stirred at 25° C. or at 50° C. After 2 days, the samples were inspected for the presence of solid. If solid was not observed, additional salt material was added to the dissolved samples. Samples were stirred for an additional 3 days. After 5 days, samples were filtered and the solid obtained was analyzed by XRPD.

[7] = Thermodynamic solubility pH measurements; settings: for Solubility (mg/mL): Input Solvent pH 6.5, 25° C.; for XRPD after thermodynamic solubility studies: respective buffer
Procedure: After 2 hours at 25° C., the pH of each slurry was measured and the pH was adjusted, where required. After 24 hours at 25° C., the pH of each slurry was measured and the pH was adjusted, where required. After 48 hours at 25° C., the slurries were separated by centrifugation. The solids were analyzed by XRPD, while the pH of the separated liquors were also measured.

[8] = Salt disproportionation studies (slurry in deionized water)
Procedure: Samples of salts described herein were prepared for disproportionation studies. Approximately 15 mg of the salt material was suspended in 4 mL of deionized water at ambient temperature (ca. 22° C.). The slurry of the salt was shaken at ambient temperature and analyzed after: 1 h, 24 h, and 48 h. Each sample was filtered using a centrifuge filter. The solid was analyzed by XRPD. pH measurements were performed for the solution (three pH measurements were carried out for each sample and the average pH was calculated).

[9] = 2% and 5% water in acetone, 25° C.
[10] = 2% water in water/acetone, 25° C., Form = form of the same salt
[11] = 2% water in water/acetone, 50° C., Form = form of the same salt
[12] = 5% water in water/acetone, 25° C., Form = form of the same salt
[13] = 5% water in water/acetone, 50° C., Form = form of the same salt
[14] = 20% water in water/acetone, 25° C.
[15] = 20% water in water/acetone, 50° C.
[16] = Input Solvent Water, 25° C., 48 hours
[17] = Input Solvent pH 1, 25° C., 48 hours
[18] = Input Solvent pH 4.5, 25° C., 48 hours

O=S(=O)(O)c1cccc2c(S(=O)(=O)O)cccc12
stability under accelerated storage conditions (XRPD) [1]: decreased crystallinity

O=C(c1ccc(Oc2ccccc2)cc1Cl)c1c[nH]c2ncnc(N[C@@H]3CC[C@@H](CO)OC3)c12.O=S(=O)(O)c1cccc2c(S(=O)(=O)O)cccc12 [1,5-naphthalene disulfonic acid Form 2]
form conversion under vacuum drying conditions ([2]; vacuum drying): converts 1,5-naphthalene disulfonic acid Form 4

O=C(c1ccc(Oc2ccccc2)cc1Cl)c1c[nH]c2ncnc(N[C@@H]3CC[C@@H](CO)OC3)c12.O=S(=O)(O)c1ccccc1 [besylate Form 1]
Post-DVS XRPD analysis (form) [3]: no change in form from the input material
XRPD analysis after storage for 1 week ([4]; 40° C./75% RH, 1 week): no change in form from the input material
Purity after 1 week (%) ([4]; 40° C./75% RH, open vials, 1 week): 97.8%
Purity after 1 week (%) ([4]; 80° C., open vials, 1 week): 97.4%
Purity after 1 week (%) ([4]; Ambient, open vials, 1 week): 97.4%
T = 0 purity (%) ([4]; T = 0, before storage): 97.4%
area % purity and form changes after 1 week ([4]; ambient, 40° C./75% RH and 80° C., open vials, 1 week): no decrease in area % purity or form changes
KF moisture (water) content [5]: 0.24% and 2.0%
solid obtained in hydration study (XRPD) [6, 9]: recovered
Hydration study result (solid by XRPD) [6, 10]: Form 1
Hydration study result (solid by XRPD) [6, 11]: Form 1
Hydration study result (solid by XRPD) [6, 12]: Gum
Hydration study result (solid by XRPD) [6, 13]: Gum
Hydration study result (solid by XRPD) [6, 14]: Gum
Hydration study result (solid by XRPD) [6, 15]: Gum
solid obtained in hydration study [6]: gum
pH - 2 Hours at 25° C. ([7]; Input Solvent Water): 1.96
pH - 24 Hours at 25° C. ([7]; Input Solvent Water): 1.68
pH - 48 Hours at 25° C. ([7]; Input Solvent Water): 1.84
Solubility [7, 16]: 200 µg/mL
pH - 2 Hours at 25° C. ([7]; Input Solvent pH 1): 0.19
pH - 24 Hours at 25° C. ([7]; Input Solvent pH 1): 0.37
pH - 48 Hours at 25° C. ([7]; Input Solvent pH 1): 1.07
Solubility [7, 17]: 200 µg/mL
pH - 2 Hours at 25° C. ([7]; Input Solvent pH 4.5): 4.20
pH - 24 Hours at 25° C. ([7]; Input Solvent pH 4.5): 3.80
pH - 48 Hours at 25° C. ([7]; Input Solvent pH 4.5): 3.82
Solubility [7, 18]: <100 µg/mL
pH - 2 Hours at 25° C. ([7]; Input Solvent pH 6.5): 3.31
pH - 24 Hours at 25° C. ([7]; Input Solvent pH 6.5): 2.51
pH - 48 Hours at 25° C. ([7]; Input Solvent pH 6.5): 3.26
Solubility (mg/mL) ([7]; 48 hours): <LOD
XRPD after thermodynamic solubility studies ([7]; 25° C., 48 hours): poorly crystalline; also recorded: no change from the input material
XRPD after salt disproportionation study, 24 hours [8]: gel-like, amorphous solid
XRPD after salt disproportionation study, 48 hours ([8]; 48 hours): staying partially crystalline; also recorded: no change from the input material
stability under accelerated storage conditions (XRPD) [1]: stable

Br.O=C(c1ccc(Oc2ccccc2)cc1Cl)c1c[nH]c2ncnc(N[C@@H]3CC[C@@H](CO)OC3)c12 [hydrobromide Form 1]
Post-DVS XRPD analysis (form) [3]: no change in form from the input material
moisture uptake by DVS [3]: ca. 7.0%
XRPD analysis after storage for 1 week ([4]; 40° C./75% RH, 1 week): no change in form from the input material
KF moisture (water) content [5]: 7.39%
solid obtained in hydration study (XRPD) [6, 9]: recovered
solid obtained in hydration study (XRPD) ([6]; 2% water in acetone, 50° C.): potentially new form
Hydration study result (solid by XRPD) [6, 10]: Form 1
Hydration study result (solid by XRPD) [6, 11]: low crystallinity
Hydration study result (solid by XRPD) [6, 12]: Form 1
Hydration study result (solid by XRPD) [6, 13]: Gum
Hydration study result (solid by XRPD) [6, 14]: Gum
Hydration study result (solid by XRPD) [6, 15]: Gum
solid obtained in hydration study [6]: gum
XRPD after thermodynamic solubility studies ([7]; 25° C., 48 hours): no change from the input material
XRPD after salt disproportionation study, 48 hours ([8]; 48 hours): no change from the input material
stability under accelerated storage conditions (XRPD) [1]: stable

Br.O=C(c1ccc(Oc2ccccc2)cc1Cl)c1c[nH]c2ncnc(N[C@@H]3CC[C@@H](CO)OC3)c12 [hydrobromide Form 2]
Post-DVS XRPD analysis (form) [3]: no change in form from the input material
moisture uptake by DVS [3]: ca. 2.4%
XRPD analysis after storage for 1 week ([4]; 40° C./75% RH, 1 week): no change in form from the input material
KF moisture (water) content [5]: 1.97%
pH - 2 Hours at 25° C. ([7]; Input Solvent Water): 1.86
pH - 24 Hours at 25° C. ([7]; Input Solvent Water): 1.34
pH - 48 Hours at 25° C. ([7]; Input Solvent Water): 1.86
Solubility [7, 16]: 500 µg/mL
pH - 2 Hours at 25° C. ([7]; Input Solvent pH 1): 0.27
pH - 24 Hours at 25° C. ([7]; Input Solvent pH 1): 0.40
pH - 48 Hours at 25° C. ([7]; Input Solvent pH 1): 0.78
Solubility [7, 17]: <100 µg/mL
pH - 2 Hours at 25° C. ([7]; Input Solvent pH 4.5): 3.97
pH - 24 Hours at 25° C. ([7]; Input Solvent pH 4.5): 3.62
pH - 48 Hours at 25° C. ([7]; Input Solvent pH 4.5): 3.84
Solubility [7, 18]: <100 µg/mL
pH - 2 Hours at 25° C. ([7]; Input Solvent pH 6.5): 3.53
pH - 24 Hours at 25° C. ([7]; Input Solvent pH 6.5): 2.61
pH - 48 Hours at 25° C. ([7]; Input Solvent pH 6.5): 3.44
Solubility (mg/mL) ([7]; 48 hours): <LOD
XRPD after thermodynamic solubility studies, pH 1 ([7]; pH 1, 25° C., 48 hours): hydrobromide Form 1 and 2 are observed
XRPD after thermodynamic solubility studies, water and pH 4.5 and 6.5 ([7]; water and pH 4.5 and 6.5, 25° C., 48 hours): poorly crystalline
XRPD after salt disproportionation study, 24 hours [8]: partially crystalline
XRPD after salt disproportionation study, 48 hours ([8]; 48 hours): staying hydrobromide Form 2
measured pH after slurrying in water ([8]; 48 hours): 1.86

Cl.O=C(c1ccc(Oc2ccccc2)cc1Cl)c1c[nH]c2ncnc(N[C@@H]3CC[C@@H](CO)OC3)c12 [hydrochloride Form 1]
form conversion under ambient conditions ([2]; ambient conditions): gradually converts to hydrochloride Form 2

Cl.O=C(c1ccc(Oc2ccccc2)cc1Cl)c1c[nH]c2ncnc(N[C@@H]3CC[C@@H](CO)OC3)c12 [hydrochloride Form 2]
stability under accelerated storage conditions (XRPD) [1]: decreased crystallinity

O=C(O)/C=C\C(=O)O.O=C(c1ccc(Oc2ccccc2)cc1Cl)c1c[nH]c2ncnc(N[C@@H]3CC[C@@H](CO)OC3)c12 [maleate Form 1]
stability under accelerated storage conditions (XRPD) [1]: stable

O=C(O)C(=O)O.O=C(c1ccc(Oc2ccccc2)cc1Cl)c1c[nH]c2ncnc(N[C@@H]3CC[C@@H](CO)OC3)c12 [oxalate Form 3]
stability under accelerated storage conditions (XRPD) [1]: stable

O=C(c1ccc(Oc2ccccc2)cc1Cl)c1c[nH]c2ncnc(N[C@@H]3CC[C@@H](CO)OC3)c12.O=P(O)(O)O [phosphate Form 1]
Post-DVS XRPD analysis (form) [3]: no change in form from the input material
moisture uptake by DVS [3]: ca. 3.2%
XRPD analysis after storage for 1 week ([4]; 40° C./75% RH, 1 week): no change in form from the input material
KF moisture (water) content [5]: 3.74%
solid obtained in hydration study (XRPD) [6, 9]: recovered
solid obtained in hydration study (XRPD) ([6]; 2% water in acetone, 50° C.): potentially new form
Hydration study result (solid by XRPD) [6, 10]: Form 1
Hydration study result (solid by XRPD) [6, 11]: Form 1
Hydration study result (solid by XRPD) [6, 12]: Form 1
Hydration study result (solid by XRPD) [6, 13]: Form 6
Hydration study result (solid by XRPD) [6, 14]: Gum
Hydration study result (solid by XRPD) [6, 15]: Gum
solid obtained in hydration study [6]: gum
XRPD after thermodynamic solubility studies ([7]; 25° C., 48 hours): no change from the input material
XRPD after salt disproportionation study, 48 hours ([8]; 48 hours): no change from the input material
stability under accelerated storage conditions (XRPD) [1]: stable
